The text below walks through data of publication PMC2965657, “Antioxidant Biomarkers from Vanda coerulea Stems Reduce Irradiated HaCaT PGE-2 Production as a Result of COX-2 Inhibition” (PLoS ONE, 2010).

Test [1] is described as follows: •OH radical scavenging (luminol chemiluminescence). As to conditions: mean ± sd. On the procedure:
(§1) All in vitro radical-scavenging experiments (DPPH, ^•OH/luminol chemiluminescence) and IC50 calculations were assayed as previously described by Parejo et al. Results were expressed as percentage inhibition of DPPH discolouration and luminol chemiluminescence reduction, respectively. The concentration effect (logarithmic curve) obtained for each compound was used to calculate IC50. Serial dilutions of 1–5, and quercetin (used as standard reference) were prepared in MeOH.

Test [2] can be described thus: DPPH radical scavenging (DPPH discolouration). As to conditions: mean ± sd; half-maximal neutralization of radical DPPH. Here is the method:
as §1
Background: Loss of DPPH colour is used to gauge radical scavenging.

For test [3] the following is noted: cited from earlier work.
Test [4] concerns UVB (60 mJ/cm^2) irradiated HaCaT keratinocytes. Description: PGE-2 production by UVB irradiated HaCaT (EIA). It counts as cell-based, human. As to conditions: for IC50: read-out: IC50 inhibition of HaCaT PGE-2 production. Here is the method: (§2) For measurement of reactive oxygen species neutralization and PGE-2 quantification with Vanda coerulea stem biomarkers, HaCaT cells were seeded in black 96-well microplates (Greiner Bio One 655090) at a concentration of 10^3 cells/well in complemented KSFM with 5% FBS. Microplates were incubated during 24 h (37°C, 5% CO2) before UVB irradiation at 60 mJ/cm^2 and treatment. For western blot analysis HaCaT cells were seeded at a density of 10^6 cells/ 100 mm dishes and incubated during 48 h before irradiation with UVB at 60 mJ/cm^2 (UV Lamp, VL-6LM, Vilber Lourmat) and treatment. All experiments were performed at 90% cell confluency. Cell viability was previously evaluated thanks to XTT analysis according to Roehm NW et al. Serial dilutions of 1–3, were prepared in DMSO (0.1% v/v final concentration). The first higher concentration tested was not cytotoxic (data not shown).
Indomethacin (2.79 µM), a non-steroidal COX inhibitor, was used as a positive reference. Treated microplates were incubated at 37°C, 5% CO2. Untreated irradiated and non irradiated cells (DMSO 0.1% v/v final) were respectively used as positive and negative controls. After 24 h, supernatants were harvested for PGE-2 concentration measurement and BCA assay was realized to determine total cellular protein in each well. PGE-2 concentration was measured using the enzyme immunoassay Parameter™ PGE-2 kit (R&D Systems) according to the manufacturer's instructions. Each PGE-2 quantification (QPGE-2) was reported to total protein concentration per well.
Results were expressed as inhibition percentage of PGE-2 (I PGE-2) production compared with untreated irradiated cells (positive control).
I PGE-2 = 100- ((QPGE2) sample/ (QPGE2) positive control) ×100.
Inhibition percentages were plotted according to compounds 1–3 concentrations. Logarithmic regression analysis of the mean replicate values was used to calculate IC50 (Concentration causing half-maximal Inhibition of irradiated HaCaT PGE-2 production)

For test [5], the system named is COX-2 expression in irradiated HaCaT cells. As to the kind of experiment: COX-2 expression by Western blot in UVB irradiated HaCaT. As to conditions: 2.87 µM, 16 h, COX-2/β-actin vs UVB+. It counts as cell-based, human. Here is the method:
as §2
After UVB irradiation 100 mm dishes were treated with stilbenoids 1–3 at 23 µM and 2.87 µM in a serum free medium and incubated during 16 h (37°C, 5% CO2). Untreated irradiated (UVB+) and non irradiated (UVB-) cells were used as positive and negative controls respectively. […] The protein concentration of each sample was determined using a Bradford assay. […] Results were expressed as fold decrease compared to the (UVB+) control. […]

In a further test the target is T1, human recombinant COX-2 (Homo sapiens, UniProt P35354).
T1 sequence (P35354 18-604): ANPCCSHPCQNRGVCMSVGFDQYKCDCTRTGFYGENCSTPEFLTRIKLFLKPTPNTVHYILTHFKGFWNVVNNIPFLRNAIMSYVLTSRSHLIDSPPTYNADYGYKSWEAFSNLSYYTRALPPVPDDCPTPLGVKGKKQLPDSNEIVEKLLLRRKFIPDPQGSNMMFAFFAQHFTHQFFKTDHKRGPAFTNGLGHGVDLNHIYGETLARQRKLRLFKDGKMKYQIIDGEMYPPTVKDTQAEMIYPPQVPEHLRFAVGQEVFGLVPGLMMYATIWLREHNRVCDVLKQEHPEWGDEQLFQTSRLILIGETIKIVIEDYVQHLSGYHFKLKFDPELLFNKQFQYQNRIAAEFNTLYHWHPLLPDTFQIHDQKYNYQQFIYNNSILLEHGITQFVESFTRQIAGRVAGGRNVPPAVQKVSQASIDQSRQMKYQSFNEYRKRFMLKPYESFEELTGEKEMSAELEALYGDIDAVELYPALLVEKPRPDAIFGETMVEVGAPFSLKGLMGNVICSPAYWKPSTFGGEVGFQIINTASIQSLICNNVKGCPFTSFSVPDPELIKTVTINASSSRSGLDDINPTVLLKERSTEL
As to the kind of experiment: COX-2 enzyme activity (PGE-2 formation from arachidonic acid). It counts as biochemical. As to conditions: for IC50: 2 µM arachidonic acid, mean ± sd, read-out: IC50 inhibition of COX-2 enzyme activity; for inhibition of COX-2 enzyme activity: up to 100 µM. On the procedure:
Serial dilutions of 1–3 were prepared in DMSO. Six concentrations were tested from 0.1 µM to 100 µM for imbricatin (1), from 0.03 to 100 µM for methoxycoelonin (2) and from 0.3 µM to 100 µM for gigantol (3).
Stilbenoids 1–3, indomethacin and water (negative control) were pre-incubated for 20 min at 22°C with the human recombinant COX-2 enzyme (0.2 µg) in buffer containing 100 mM Tris-HCl (pH 8.0), 2 mM phenol and 1 µM hematine. Thereafter, the reaction was initiated by addition of 2 µM arachidonic acid and the mixture was incubated for 5 min at 22°C. For basal control measurements, arachidonic acid was omitted from the medium. Indomethacin was used as positive inhibitory reference.
Following incubation, the reaction was stopped by the addition of 1 M HCl then 1 M Tris/HCl (pH 8.0) followed by cooling to 4°C. The amount of PGE-2 present in the reaction mixture was quantified using an EIA detection kit (Cayman Chemical).
The results were expressed as inhibition percentage of the control enzyme activity:
100–[(activity measured in the presence of the compound/control enzyme activity) ×100]
The IC50 values (concentration causing a half-maximal inhibition of control enzyme activity) and Hill coefficients (nH) were determined by non-linear regression analysis of the inhibition curves generated with mean replicate values using Hill equation curve fitting.

In test [6] the test system is H2O2 stressed HaCaT cells. As to the kind of experiment: Intracellular ROS neutralization with DCFH-DA probe in H2O2 stressed HaCaT. The note with it: Homo sapiens, H2O2 100 µM, mean ± sd. It is filed as cell-based. On the procedure:
as §2
The DCFH-DA method was used to detect the levels of intracellular ROS [32] DCFH-DA diffuses into cells, where it is hydrolyzed by intracellular esterase to polar 2′,7′-dichlorodihydrofluorescein. This non-fluorescent fluorescein analog is oxidized by intracellular oxidants to a highly fluorescent, 2′,7′-dichlorofluorescein. Tocopherol [Sigma] (25 µM) was used as a positive reference. HaCaT cells were seeded as described and treated with serial dilutions of 1–3 and quercetin (standard reference) after 24 h incubation. Treated microplates were further incubated during 24 h (37°C, 5% CO2). HaCaT cells were washed with phosphate buffer saline (PBS), and DCFH-DA (0.05 mM) was added to the cells. 45 min after incubation, cells were stimulated by a H2O2 solution (100 µM in PBS) to generate an oxidative stress. Immediately after F(T0) and 40 min after stimulation F(T40), DCFH fluorescence was detected at an excitation wavelength of 485 nm and an emission wavelength of 535 nm, using a SpectraFluor Plus spectrofluorometer (Tecan). Two kinds of assay controls were used: negative control was non-stimulated cells and positive control was H2O2 stressed cells (DMSO 0.1% v/v). Results were expressed in percentage of fluorescence inhibition (% of ROS neutralization) calculated by comparison with H2O2 stimulated cells.
(% of ROS neutralization) = [1- [F(T40)-F(T0)] sample/[F(T40)-F(T0)] positive control] ×100.
Inhibition percentages were plotted according to compounds 1–3 and quercetin concentrations. Logarithmic regression analysis of the mean replicate values was used to calculate IC50 (Concentration causing half-maximal neutralization of ROS on H2O2 stressed HaCaT)

Test [7] concerns irradiated (UVB 60 mJ/cm2) normal human epidermal keratinocytes (NHEK). As to the kind of experiment: PGE-2 release from UVB irradiated normal human epidermal keratinocytes. The note with it: light or radiation study, vs UVB+ control, read-out: inhibition of PGE-2 production. It counts as cell-based. Here is the method:
Supplementary file pone.0013713.s001.tif: Figure S1 Concentration-dependent effect of stilbenoids (1-3) on PGE-2 release from irradiated (UVB 60 mJ/cm2) normal human epidermal keratinocytes (NHEK). Histogram represents the quantity of PGE-2 produced (PGE-2/ total NHEK proteins pg/µg) according to different treatments. Untreated irradiated (UVB+) and non irradiated (UVB-) NHEK were used as positive and negative controls, respectively. […] Inhibition percentages of PGE-2 release were calculated by comparison with the positive control (UVB+). Values represen mean ± sds calculated with three independent experiments. Treatment groups were compared by using one way analysis of variance ANOVA post-hoc test. Student paired t test was used to compare each stilbenoid effect to the positive control. Statistical significance (*) was set at p<0.05. Significant differences were observed between each biomarker effect. IC50 were calculated with more points than those represented here on the graph. (0.82 MB TIF) Click here for additional data file.

Where [8] appears, read: Homo sapiens, light or radiation study, UVB 60 mJ/cm^2 irradiated HaCaT, 24 h, mean ± sd.

Where two headings read alike, the source gives them in different places.

As a reminder, the IC50 is the concentration that gives 50% inhibition. As a reminder, the inhibition is the relative decrease from the control value, in per cent.

`Oc1cc2c3c(c1)COc1cc(O)cc(c1-3)CC2` [Flavidin (4), Flavidin]: the half-inhibitory concentration (IC50) in test [1] came out at 76 ± 14 nM; in test [2], 6.61 ± 1.07 µM.
Turning to `COc1cc(O)cc(CCc2ccc(O)c(OC)c2)c1` [Gigantol (3), Gigantol], the IC50 in test [3] (Zhang X et al) was 56.4 µM; at human recombinant COX-2 it was at least 100 µM; in test [6] it was 20.6 ± 0.5 µM; in test [1], 157 ± 39 nM; in test [2] it was 14 ± 1.69 µM. The “inhibition of PGE-2 production” value in test [4] (2.87 µM, UVB irradiated HaCaT) was “strong inhibition”. Also, in test [4] (HaCaT (this work) versus RAW 264.7 (ref 38)), the “fold stronger inhibition of PGE-2 production on human HaCaT than on murine macrophage RAW 264.7” value is listed as 16 fold. Besides, the “IC50 inhibition of HaCaT PGE-2 production” value in test [4] (UVB 60 mJ/cm^2 irradiated HaCaT, 24 h, mean ± sd) is “No concentration-dependanteffect”. In addition, the “effect on UVB-induced COX-2 expression” value in test [5] is “did not inhibit”. Besides, at human recombinant COX-2, the “inhibition of COX-2 enzyme activity” value is listed as “did not display significant inhibition”.
As to `COc1c(O)cc2c3c1COc1cc(O)cc(c1-3)CC2` [Imbricatin (1), Imbricatin], the IC50 was 8.8 µM in test [3] (Guo XY et al); 12.2 ± 2.9 µM in test [4] (setting [8]); 12 ± 1.2 µM on human recombinant COX-2; 8.8 ± 1.7 µM in test [6]; 34 ± 11 nM in test [1]; 8.37 ± 0.61 µM in test [2]. The “inhibition of COX-2 enzyme activity” value on human recombinant COX-2 was “inhibited significantly”.
On to `COc1ccc2c(c1)c(CC(=O)O)c(C)n2C(=O)c1ccc(Cl)cc1` [Indomethacin, reference compound], for which the inhibition at 2.79 µM in test [4] (Homo sapiens, light or radiation study, 2.79 µM, UVB irradiated HaCaT, vs UVB+ control) turned out to be 54%; in test [7], 86%. The IC50 in test [4] (setting [8]) was determined as 2.7 ± 0.7 µM.
With `COc1cc2c(cc1O)CCc1cc(O)cc(OC)c1-2` [Methoxycoelonin (2), Methoxycoelonin], the IC50 is 19.3 ± 3.8 µM in test [4] (setting [8]); 5.8 ± 1.2 µM on human recombinant COX-2; 9.4 ± 2.1 µM in test [6]; 35 ± 8 nM in test [1]; 9.01 ± 0.93 µM in test [2]. Besides, the “inhibition of COX-2 enzyme activity” value at human recombinant COX-2 was “inhibited significantly”.
Regarding `O=c1c(O)c(-c2ccc(O)c(O)c2)oc2cc(O)cc(O)c12` [Quercetin, reference compound], the values for the IC50 in test [6], in test [1] and in test [2] were 13.8 ± 2.2 µM, 45 ± 12 nM and 2.42 ± 0.65 µM, respectively.
For the compound Coelonin [Coelonin (5)], the results for the IC50 in test [3] (Wang J et al), in test [1] and in test [2] were 16.7 µM, 79 ± 18 nM and 8.47 ± 1.58 µM, respectively.
